What was measured:
Assay in all cases: combination Emax (second highest fraction inhibited in the dose matrix, 72 h); higher = more inhibition; extreme values may be limits of the assay
[1] = test system: GRANTA-519 (B-Cell Non-Hodgkin's Lymphoma)
Procedure, shortened: (§1)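 Cell lines grown in DMEM/F12 or RPMI with 10% FBS were plated in 1536-well plates and held 24 hours at 37°C, 5% CO2 before 72 hours of exposure to two-drug dose matrices, with DMSO typically at 0.2%. CellTiter-Glo 2.0 luminescence gave viability, which was converted to inhibition. Vehicle wells were set to 0 and blank wells to 1. Combination Emax is the second-highest inhibition in the matrix, and Bliss excess is the observed combination effect minus the expected EA + EB − EA·EB, where EA and EB are the single-agent effects.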

[2] = test system: Daudi (Burkitt's Lymphoma)
Procedure, shortened: as §1

NCI-H2452 (Mesothelioma) = test system: NCI-H2452 (Mesothelioma)
Procedure, shortened: as §1

[3] = test system: NCI-H2170 (Squamous Cell Lung Carcinoma)
Procedure, shortened: as §1

[4] = test system: SNU-1 (Gastric Carcinoma)
Procedure, shortened: as §1

[5] = test system: ATN-1 (T-Lymphoblastic Leukemia)
Procedure, shortened: as §1

[6] = test system: SBC-3 (Small Cell Lung Carcinoma)
Procedure, shortened: as §1

[7] = test system: OCI-M1 (Acute Myeloid Leukemia)
Procedure, shortened: as §1

[8] = test system: RPMI-8402 (T-Lymphoblastic Leukemia)
Procedure, shortened: as §1

[9] = test system: SUP-HD1 (Hodgkin's Lymphoma)
Procedure, shortened: as §1

[10] = test system: COR-L105 (Lung Adenocarcinoma)
Procedure, shortened: as §1

[11] = test system: BT-474 (Breast Carcinoma)
Procedure, shortened: as §1

MG-63 (Osteosarcoma) = test system: MG-63 (Osteosarcoma)
Procedure, shortened: as §1

A375 (Melanoma) = test system: A375 (Melanoma)
Procedure, shortened: as §1

[12] = test system: RS4-11 (B-Lymphoblastic Leukemia)
Procedure, shortened: as §1

[13] = test system: JJN-3 (Plasma Cell Myeloma)
Procedure, shortened: as §1

[14] = test system: IGROV-1 (Ovarian Carcinoma)
Procedure, shortened: as §1

[15] = test system: JURL-MK1 (Chronic Myelogenous Leukemia)
Procedure, shortened: as §1

[16] = test system: NCI-H2009 (Lung Adenocarcinoma)
Procedure, shortened: as §1

[17] = test system: HT-1197 (Bladder Carcinoma)
Procedure, shortened: as §1

| SMILES | combination Emax [1] | combination Emax [2] | combination Emax (NCI-H2452 (Mesothelioma)) | combination Emax [3] | combination Emax [4] | combination Emax [5] | combination Emax [6] | combination Emax [7] | combination Emax [8] | combination Emax [9] | combination Emax [10] | combination Emax [11] | combination Emax (MG-63 (Osteosarcoma)) | combination Emax (A375 (Melanoma)) | combination Emax [12] | combination Emax [13] | combination Emax [14] | combination Emax [15] | combination Emax [16] | combination Emax [17] |
| --- | --- | --- | --- | --- | --- | --- | --- | --- | --- | --- | --- | --- | --- | --- | --- | --- | --- | --- | --- | --- |
| CN(CCO)CC[C@H](CSc1ccccc1)Nc1ccc(S(=O)(=O)NC(=O)c2ccc(N3CCC([C@@H](O)c4ccccc4-c4ccc(Cl)cc4)CC3)cc2)cc1S(=O)(=O)C(F)(F)F [AZD4320] + C=CCn1c(=O)c2cnc(Nc3ccc(N4CCN(C)CC4)cc3)nc2n1-c1cccc(C(C)(C)O)n1 [AZD1775] (first compound max 1 µM, partner max 1 µM) | 1 | 0.336 | 0.737 | 0.8 | 0.929 | 0.982 | 0.69 | 1 | 1 | 0.952 | 0.478 | 0.526 | 0.266 | 0.749 | 1 | 0.662 | 0.894 | 1 | 0.764 | 0.622 |
| CN(CCO)CC[C@H](CSc1ccccc1)Nc1ccc(S(=O)(=O)NC(=O)c2ccc(N3CCC([C@@H](O)c4ccccc4-c4ccc(Cl)cc4)CC3)cc2)cc1S(=O)(=O)C(F)(F)F [AZD4320] + CN(C)CCCOc1ccc(-c2ccc3ncc4c(c3c2)n(C2CCOCC2)c(=O)n4C)cn1 [AZD0156] (first compound max 1 µM, 7x7, partner max 1 µM) | 0.934 | 0.119 | 0.246 | 0.613 | 0.397 | 0.656 | 0.163 | 0.988 | 0.903 | 0.961 | 0.261 | 0.211 | 0.136 | 0.129 | 1 | 0.445 | 0.611 | 0.825 | 0.0839 | 0.142 |
| CN(CCO)CC[C@H](CSc1ccccc1)Nc1ccc(S(=O)(=O)NC(=O)c2ccc(N3CCC([C@@H](O)c4ccccc4-c4ccc(Cl)cc4)CC3)cc2)cc1S(=O)(=O)C(F)(F)F [AZD4320] + Cn1cnc2c(F)c(Nc3ccc(Br)cc3Cl)c(C(=O)NOCCO)cc21 [Selumetinib] (first compound max 1 µM, 7x7, partner max 3 µM) | 1 | 0.65 | 0.346 | 0.676 | 0.952 | 0.732 | 0.981 | 1 | 0.999 | 0.983 | 0.543 | 0.282 | 0.365 | 0.749 | 1 | 0.731 | 0.612 | 0.999 | 0.606 | 0.41 |
| COc1nnc2ccc(N3CCC(c4ccc(OCCN5CCN(C)C(=O)[C@H]5C)cc4)CC3)nn12 [AZD5153] + C=CCn1c(=O)c2cnc(Nc3ccc(N4CCN(C)CC4)cc3)nc2n1-c1cccc(C(C)(C)O)n1 [AZD1775] (first compound max 1 µM, partner max 1 µM) | 0.874 | 0.753 | 0.605 | 0.735 | 0.737 | 0.98 | 0.767 | 0.999 | 1 | 0.783 | 0.474 | 0.526 | 0.671 | 0.637 | 0.979 | 0.873 | 0.838 | 0.998 | 0.703 | 0.724 |
| COc1nnc2ccc(N3CCC(c4ccc(OCCN5CCN(C)C(=O)[C@H]5C)cc4)CC3)nn12 [AZD5153] + CC1(C)CCC(CN2CCN(c3ccc(C(=O)NS(=O)(=O)c4ccc(NCC5CCOCC5)c([N+](=O)[O-])c4)c(Oc4cnc5[nH]ccc5c4)c3)CC2)=C(c2ccc(Cl)cc2)C1 [Venetoclax] (first compound max 1 µM, 7x7, partner max 1 µM) | 0.69 | 0.58 | 0.411 | 0.484 | 0.645 | 0.516 | 0.721 | 1 | 0.791 | 0.955 | 0.507 | 0.353 | 0.646 | 0.44 | 1 | 0.892 | 0.669 | 0.873 | 0.373 | 0.656 |
| COc1nnc2ccc(N3CCC(c4ccc(OCCN5CCN(C)C(=O)[C@H]5C)cc4)CC3)nn12 [AZD5153] + CCN(CCO)CCCOc1ccc2c(Nc3cc(CC(=O)Nc4cccc(F)c4)[nH]n3)ncnc2c1 [AZD2811] (first compound max 1 µM, 7x7, partner max 1 µM) | 0.56 | 0.677 | 0.433 | 0.717 | 0.653 | 0.734 | 0.781 | 1 | 0.999 | 0.704 | 0.426 | 0.368 | 0.694 | 0.562 | 0.977 | 0.876 | 0.618 | 0.898 | 0.382 | 0.742 |

From the supplement of paper PMC11061612
